Source: patent US20080274892A1, “Novel Haloalkylsulfonanilide Derivative, Herbicide, and Method of Use Thereof” (priority 2005, published 2008)

Experiments:
[1] = tested on: barnyard glass; assay: Test Example 2: herbicidal efficacy on rice paddy weeds post-emergence; format: in vivo, Echinochloa crus-galli; conditions: post-emergence, one leaf stage, 21 days after treatment
Source text: (§1) The standard of judgment for herbicidal efficacy (degree of growth inhibition) and phytotoxicity 4 . . . 90%-100% of herbicidal efficacy or phytotoxicity 3 . . . 70%-89% of herbicidal efficacy or phytotoxicity 2 . . . 40%-69% of herbicidal efficacy or phytotoxicity 1 . . . 1%-39% of herbicidal efficacy or phytotoxicity 0 . . . 0% of herbicidal efficacy or phytotoxicity
(§2) A 75 cm^2 plastic pot was filled with soil (clay loam) and planted seeds of barnyard glass and bulrush which is a rice paddy weed. After covering the top with 75 cm^3 soil mixed with seeds of false pimpernel, the pot was filled with water so that the soil submerged under 5 cm depth of water and kept in a hot house. […] The pot was kept in a hot house for 21 days after the treatment and the herbicidal efficacy was investigated and evaluated according to the standard in Test Example 1 by comparing with the untreated control. “-” in the table represents test not done.

[2] = tested on: bulrush; assay: Test Example 1: herbicidal efficacy on rice paddy weeds pre-emergence; format: in vivo, Scirpus juncoides; conditions: 21 days
Protocol: (§3) A 75 cm^2 plastic pot was filled with soil (clay loam) and planted seeds of bulrush which is a rice paddy weed. After covering the top with 75 cm^3 soil mixed with seeds of false pimpernel, the pot was filled with water so that the soil submerged under 5 cm depth of water. The predetermined effective dosage ([…]) of a formulation containing the compound of the present invention prepared according to Formulation Example 1-4 as an active ingredient was diluted in water and added to the pot water surface dropwise. The pot was kept in a hot house for 21 days and the herbicidal efficacy was investigated. The herbicidal efficacy was evaluated according to the following standard by comparing with untreated control. “-” in the table represents test not done.
as §1

[3] = tested on: false pimpernel; assay: as above; format: in vivo, Lindernia pyxidaria; conditions: 21 days
Protocol: as §3, §1

[4] = tested on: bulrush; assay: Test Example 2: herbicidal efficacy on rice paddy weeds post-emergence; format: in vivo, Scirpus juncoides; conditions: post-emergence, one leaf stage, 21 days after treatment
Source text: as §1, §2

[5] = tested on: paddy rice plant (cultivar: Nihonbare); assay: Test Example 3: phytotoxicity test for transplanted paddy rice plant; format: in vivo; conditions: transplanted rice, 21 days after treatment
Protocol: as §1
A 75 cm^2 plastic pot was filled with soil (clay loam), and water was added so that the soil was submerged under 5 cm depth of water. Two paddy rice plant (cultivar: Nihonbare) at two leaves stage were transplanted at the depth of 1 cm and kept in a hot house. […] The pot was kept in a hot house for 21 days after the treatment and the phytotoxicity was investigated and evaluated according to the standard in Test Example 1 by comparing with the untreated control. “-” in the table represents test not done.

[6] = tested on: false pimpernel; assay: Test Example 2: herbicidal efficacy on rice paddy weeds post-emergence; format: in vivo, Lindernia pyxidaria; conditions: post-emergence, one leaf stage, 21 days after treatment
Source text: as §1, §2

[7] = dosage 1000 g/ha, treated 5 days after transplantation

Compound	Burnyard grass post (herbicidal efficacy grade) ([1]; dosage 300 g/ha)	Bulrush pre (herbicidal efficacy grade) ([2]; dosage 300 g/ha)	False pimpernel pre (herbicidal efficacy grade) ([3]; dosage 300 g/ha)	Bulrush post (herbicidal efficacy grade) ([4]; dosage 300 g/ha)	Phytotoxicity to paddy rice ([5]; dosage 300 g/ha)	False pimpernel post (herbicidal efficacy grade) ([6]; dosage 300 g/ha)	Burnyard grass post (herbicidal efficacy grade) ([1]; dosage 1000 g/ha)	Bulrush pre (herbicidal efficacy grade) ([2]; dosage 1000 g/ha)	False pimpernel pre (herbicidal efficacy grade) ([3]; dosage 1000 g/ha)	Bulrush post (herbicidal efficacy grade) ([4]; dosage 1000 g/ha)	Phytotoxicity to paddy rice [5, 7]	False pimpernel post (herbicidal efficacy grade) ([6]; dosage 1000 g/ha)
COCC1(C)CN(Cc2ccccc2NS(=O)(=O)C(F)(F)F)C(=O)O1 (stereo not drawn) [Compound 1-137]	4 (90%-100% of herbicidal efficacy or phytotoxicity)	4 (90%-100% of herbicidal efficacy or phytotoxicity)	4 (90%-100% of herbicidal efficacy or phytotoxicity)	4 (90%-100% of herbicidal efficacy or phytotoxicity)	2 (40%-69% of herbicidal efficacy or phytotoxicity)	4 (90%-100% of herbicidal efficacy or phytotoxicity)	–	–	–	–	–	–
CC(C)COC(=O)N(c1ccccc1CN1CC(C)(COCc2ccccc2)OC1=O)S(=O)(=O)C(F)(F)F (stereo not drawn) [Compound 1-174]	–	–	–	–	–	–	4 (90%-100% of herbicidal efficacy or phytotoxicity)	4 (90%-100% of herbicidal efficacy or phytotoxicity)	4 (90%-100% of herbicidal efficacy or phytotoxicity)	4 (90%-100% of herbicidal efficacy or phytotoxicity)	1 (1%-39% of herbicidal efficacy or phytotoxicity)	4 (90%-100% of herbicidal efficacy or phytotoxicity)
COC(=O)N(c1ccccc1CN1CC2(CCCC2C)OC1=O)S(=O)(=O)C(F)(F)F (stereo not drawn) [Compound 1-162]	–	–	–	–	–	–	4 (90%-100% of herbicidal efficacy or phytotoxicity)	4 (90%-100% of herbicidal efficacy or phytotoxicity)	4 (90%-100% of herbicidal efficacy or phytotoxicity)	4 (90%-100% of herbicidal efficacy or phytotoxicity)	1 (1%-39% of herbicidal efficacy or phytotoxicity)	4 (90%-100% of herbicidal efficacy or phytotoxicity)
CC(C)COC(=O)N(c1ccccc1CN1CC(C(C)(C)C)OC1=O)S(=O)(=O)C(F)(F)F (stereo not drawn) [Compound 1-34]	–	–	–	–	–	–	4 (90%-100% of herbicidal efficacy or phytotoxicity)	4 (90%-100% of herbicidal efficacy or phytotoxicity)	4 (90%-100% of herbicidal efficacy or phytotoxicity)	4 (90%-100% of herbicidal efficacy or phytotoxicity)	1 (1%-39% of herbicidal efficacy or phytotoxicity)	4 (90%-100% of herbicidal efficacy or phytotoxicity)
O=C1OC(CCl)CN1Cc1ccccc1NS(=O)(=O)C(F)(F)F (stereo not drawn) [Compound 1-39]	–	–	–	–	–	–	2 (40%-69% of herbicidal efficacy or phytotoxicity)	4 (90%-100% of herbicidal efficacy or phytotoxicity)	4 (90%-100% of herbicidal efficacy or phytotoxicity)	4 (90%-100% of herbicidal efficacy or phytotoxicity)	0 (0% of herbicidal efficacy or phytotoxicity)	4 (90%-100% of herbicidal efficacy or phytotoxicity)
CC1(C2CCCCC2)CN(Cc2ccccc2NS(=O)(=O)C(F)(F)F)C(=O)O1 (stereo not drawn) [Compound 1-154]	1 (1%-39% of herbicidal efficacy or phytotoxicity)	4 (90%-100% of herbicidal efficacy or phytotoxicity)	4 (90%-100% of herbicidal efficacy or phytotoxicity)	4 (90%-100% of herbicidal efficacy or phytotoxicity)	1 (1%-39% of herbicidal efficacy or phytotoxicity)	4 (90%-100% of herbicidal efficacy or phytotoxicity)	–	–	–	–	–	–
COC(=O)N(c1ccccc1CN1CC(C)(COc2ccccc2)OC1=O)S(=O)(=O)C(F)(F)F (stereo not drawn) [Compound 1-159]	–	–	–	–	–	–	4 (90%-100% of herbicidal efficacy or phytotoxicity)	4 (90%-100% of herbicidal efficacy or phytotoxicity)	4 (90%-100% of herbicidal efficacy or phytotoxicity)	4 (90%-100% of herbicidal efficacy or phytotoxicity)	1 (1%-39% of herbicidal efficacy or phytotoxicity)	4 (90%-100% of herbicidal efficacy or phytotoxicity)
CCC1(C)CN(Cc2ccccc2NS(=O)(=O)C(F)(F)F)C(=S)O1 (stereo not drawn) [Compound 1-180]	–	–	–	–	–	–	4 (90%-100% of herbicidal efficacy or phytotoxicity)	4 (90%-100% of herbicidal efficacy or phytotoxicity)	4 (90%-100% of herbicidal efficacy or phytotoxicity)	4 (90%-100% of herbicidal efficacy or phytotoxicity)	2 (40%-69% of herbicidal efficacy or phytotoxicity)	4 (90%-100% of herbicidal efficacy or phytotoxicity)
COC(=O)N(c1ccccc1CN1CC(C)(COCc2ccccc2)OC1=O)S(=O)(=O)C(F)(F)F (stereo not drawn) [Compound 1-175]	–	–	–	–	–	–	4 (90%-100% of herbicidal efficacy or phytotoxicity)	4 (90%-100% of herbicidal efficacy or phytotoxicity)	4 (90%-100% of herbicidal efficacy or phytotoxicity)	4 (90%-100% of herbicidal efficacy or phytotoxicity)	1 (1%-39% of herbicidal efficacy or phytotoxicity)	4 (90%-100% of herbicidal efficacy or phytotoxicity)
CCCC1COC(=O)N1Cc1ccccc1N(C(=O)OCC(C)C)S(=O)(=O)C(F)(F)F (stereo not drawn) [Compound 1-8]	4 (90%-100% of herbicidal efficacy or phytotoxicity)	4 (90%-100% of herbicidal efficacy or phytotoxicity)	4 (90%-100% of herbicidal efficacy or phytotoxicity)	4 (90%-100% of herbicidal efficacy or phytotoxicity)	0 (0% of herbicidal efficacy or phytotoxicity)	2 (40%-69% of herbicidal efficacy or phytotoxicity)	–	–	–	–	–	–
CC(C)COC(=O)N(c1ccccc1CN1CC(C)(CC(C)C)OC1=O)S(=O)(=O)C(F)(F)F (racemic) [Compound 1-104]	–	–	–	–	–	–	4 (90%-100% of herbicidal efficacy or phytotoxicity)	4 (90%-100% of herbicidal efficacy or phytotoxicity)	4 (90%-100% of herbicidal efficacy or phytotoxicity)	4 (90%-100% of herbicidal efficacy or phytotoxicity)	2 (40%-69% of herbicidal efficacy or phytotoxicity)	4 (90%-100% of herbicidal efficacy or phytotoxicity)
CC(C)COC(=O)N(c1ccccc1CN1CC(c2ccccc2)OC1=O)S(=O)(=O)C(F)(F)F (stereo not drawn) [Compound 1-42]	–	–	–	–	–	–	4 (90%-100% of herbicidal efficacy or phytotoxicity)	3 (70%-89% of herbicidal efficacy or phytotoxicity)	4 (90%-100% of herbicidal efficacy or phytotoxicity)	3 (70%-89% of herbicidal efficacy or phytotoxicity)	0 (0% of herbicidal efficacy or phytotoxicity)	3 (70%-89% of herbicidal efficacy or phytotoxicity)
